Assay results: patent US5155041A, “Culture of Bacillus subtilis” (Korea Research Institute of Chemical Technology, priority 1990, dated 1992)
≈ marks a conversion by molar mass, not a printed value. Read-outs that look alike come from different tables or passages of the source.

Legend:
Microsporum gypseum = test: Minimum inhibitory concentration, agar dilution; type: cell-based
[1] = system: Asperillus fumigatus ATCC 164264; test: Minimum inhibitory concentration, agar dilution; type: cell-based
Rhizoctonia solani = test: Minimum inhibitory concentration, agar dilution; type: cell-based
Rhizopus sp. = test: Minimum inhibitory concentration, agar dilution; type: cell-based
[2] = system: Epidermopyton floccosum ATCC 38486; test: Minimum inhibitory concentration, agar dilution; type: cell-based
[3] = system: Coccidioides immitis ATCC 34020; test: microbe, parasite or virus in culture; type: cell-based
Cercospora kikuchi = test: Minimum inhibitory concentration, agar dilution; type: cell-based
[4] = system: Cladosporium carrionii ATCC 1624; test: Minimum inhibitory concentration, agar dilution; type: cell-based
[5] = system: Trichophyton mentagrophytes ATCC 9533; test: Minimum inhibitory concentration, agar dilution; type: cell-based
Fusarium roseum = test: microbe, parasite or virus in culture; type: cell-based
[6] = system: Sporothrix schenkii ATCC 10212; test: Minimum inhibitory concentration, agar dilution; type: cell-based
Phytophthora capsici = test: Minimum inhibitory concentration, agar dilution; type: cell-based
Phytophthora parasitica = test: Minimum inhibitory concentration, agar dilution; type: cell-based
[7] = system: Microsporum canis ATCC 11622; test: Minimum inhibitory concentration, agar dilution; type: cell-based
Pyricularia oryzae = test: microbe, parasite or virus in culture; type: cell-based
Glomerella glycine = test: Minimum inhibitory concentration, agar dilution; type: cell-based
Trichophyton ruburum = test: Minimum inhibitory concentration, agar dilution; type: cell-based
Fusarium oxysporum = test: Minimum inhibitory concentration, agar dilution
mice = details: mouse, in vivo, ip; cited from earlier work
Botrytis cinerea = test: Minimum inhibitory concentration, agar dilution
[8] = Nannizzia gypsea, Microsporum gypseum, read-out: MIC
[9] = Asperillus fumigatus ATCC 164264, read-out: MIC
[10] = Rhizoctonia solani, read-out: MIC
[11] = Epidermopyton floccosum ATCC 38486, read-out: MIC
[12] = Cercospora kikuchi, read-out: MIC
[13] = Cladophialophora carrionii, ATCC1624, Cladosporium carrionii ATCC 1624, read-out: MIC
[14] = ATCC9533, Trichophyton mentagrophytes ATCC 9533, read-out: MIC
[15] = ATCC10212, Sporothrix schenkii ATCC 10212, read-out: MIC
[16] = Phytophthora capsici, read-out: MIC
[17] = Phytophthora nicotianae, Phytophthora parasitica, read-out: MIC
[18] = ATCC11622, Microsporum canis ATCC 11622, read-out: MIC
[19] = Glomerella glycine, read-out: MIC
[20] = Trichophyton ruburum, read-out: MIC

Compound | MIC (Microsporum gypseum; [8]) [µg/mL] | MIC [1, 9] [µg/mL] | MIC (Rhizoctonia solani; [10]) [µg/mL] | MIC (Rhizopus sp.; Rhizopus sp., read-out: MIC) [µg/mL] | MIC [2, 11] [µg/mL] | MIC ([3]; ATCC34020) [µg/mL] | MIC (Cercospora kikuchi; [12]) [µg/mL] | MIC [4, 13] [µg/mL] | MIC [5, 14] [µg/mL] | MIC (Fusarium roseum; Fusarium sambucinum) [µg/mL] | MIC [6, 15] [µg/mL] | MIC (Phytophthora capsici; [16]) [µg/mL] | MIC (Phytophthora parasitica; [17]) [µg/mL] | MIC [7, 18] [µg/mL] | MIC (Pyricularia oryzae) [µg/mL] | MIC (Glomerella glycine; [19]) [µg/mL] | MIC (Trichophyton ruburum; [20]) [µg/mL] | MIC (Microsporum gypseum; Nannizzia gypsea) [µg/mL] | MIC [1] [µg/mL] | LD50 (mice) | also measured
C[C@H]1O[C@H](O[C@H]2[C@H](O)[C@@H](O)[C@@H](O)[C@H](O)[C@@H]2O)[C@@H](N)C[C@@H]1NC(=N)C(=O)O [kasugamycin] | > 100 | > 100 | > 100 | > 100 | > 100 | > 100 | > 100 | > 100 | > 100 | > 100 | > 100 | > 100 | > 100 | > 100 | 25 (≈ 65.9 µM) | > 100 | > 100 |  |  |  | 
NC(=O)OCC(O)C(O)C(N)C(=O)NC(C(=O)O)C1OC(n2cc(CO)c(=O)[nH]c2=O)C(O)C1O (stereo not drawn) [polyoxin B] | > 100 | > 100 | > 100 | > 100 | > 100 | > 100 | > 100 | > 100 | > 100 | > 100 | > 100 | > 100 | > 100 | > 100 | > 100 | > 100 | > 100 |  |  |  | 
C[C@@H]1[C@H](O)[C@@H](C)/C=C/C=C/C=C/C=C/C=C/C=C/C=C/[C@H](O[C@@H]2O[C@H](C)[C@@H](O)[C@H](N)[C@@H]2O)C[C@@H]2O[C@](O)(C[C@@H](O)C[C@@H](O)[C@H](O)CC[C@@H](O)C[C@@H](O)CC(=O)O[C@H]1C)C[C@H](O)[C@H]2C(=O)O [amphotericin B] |  |  |  |  |  | 0.4 (≈ 0.433 µM) |  |  |  | 6 (≈ 6.49 µM) |  |  |  |  | 0.2 (≈ 0.216 µM) |  |  | 0.8 (≈ 0.866 µM) | 1.5 (≈ 1.62 µM) | 88 mg/kg | MIC (Rhizoctonia solani; Rhizoctonia solani): 3 µg/mL (≈ 3.25 µM); MIC (Fusarium oxysporum; Fusarium oxysporum): 50 µg/mL (≈ 54.1 µM); MIC (Rhizopus sp.; Rhizopus): 100 µg/mL (≈ 108 µM); MIC [2]: 0.4 µg/mL (≈ 0.433 µM); MIC (Cercospora kikuchi; Cercospora): 100 µg/mL (≈ 108 µM); MIC ([4]; Cladophialophora carrionii, ATCC1624): 50 µg/mL (≈ 54.1 µM); MIC ([5]; Trichophyton mentagrophytes, ATCC9533): 0.8 µg/mL (≈ 0.866 µM); MIC ([6]; Sporothrix, ATCC10212): 50 µg/mL (≈ 54.1 µM); MIC (Phytophthora capsici; Phytophthora capsici): 25 µg/mL (≈ 27.1 µM); MIC (Phytophthora parasitica; Phytophthora nicotianae): 50 µg/mL (≈ 54.1 µM); MIC ([7]; Microsporum canis, ATCC11622): 1.5 µg/mL (≈ 1.62 µM); MIC (Botrytis cinerea; Botrytis cinerea): 3 µg/mL (≈ 3.25 µM); MIC (Glomerella glycine): 25 µg/mL (≈ 27.1 µM); MIC (Trichophyton ruburum; Trichophyton): 0.8 µg/mL (≈ 0.866 µM)
C[C@@H]1C[C@@H]([C@H](O)CC2CC(=O)NC(=O)C2)C(=O)[C@@H](C)C1 [cycloheximide] |  |  | 12 (≈ 42.7 µM) |  |  |  |  |  |  | 25 (≈ 88.9 µM) |  | 0.8 (≈ 2.84 µM) |  |  |  |  |  |  |  |  | MIC (Microsporum gypseum; Nannizzia gypsea, read-out: MIC): > 100 µg/mL; MIC ([1]; read-out: MIC): 50 µg/mL (≈ 178 µM); MIC (Rhizopus sp.; Rhizopus, read-out: MIC): > 100 µg/mL; MIC ([2]; read-out: MIC): > 100 µg/mL; MIC ([3]; ATCC34020, read-out: MIC): > 100 µg/mL; MIC (Cercospora kikuchi; Cercospora, read-out: MIC): 100 µg/mL (≈ 355 µM); MIC ([4]; Cladophialophora carrionii, ATCC1624, read-out: MIC): > 100 µg/mL; MIC ([5]; Trichophyton mentagrophytes, ATCC9533, read-out: MIC): > 100 µg/mL; MIC ([6]; Sporothrix, ATCC10212, read-out: MIC): > 100 µg/mL; MIC (Phytophthora parasitica; Phytophthora nicotianae, read-out: MIC): 1.5 µg/mL (≈ 5.33 µM); MIC ([7]; Microsporum canis, ATCC11622, read-out: MIC): > 100 µg/mL; MIC (Pyricularia oryzae; read-out: MIC): 3 µg/mL (≈ 10.7 µM); MIC (Glomerella glycine; read-out: MIC): 25 µg/mL (≈ 88.9 µM); MIC (Trichophyton ruburum; Trichophyton, read-out: MIC): > 100 µg/mL
COC1=CC(=O)C[C@@H](C)[C@]12Oc1c(Cl)c(OC)cc(OC)c1C2=O [griseofulvin] |  | > 100 | 100 (≈ 283 µM) | > 100 | 1.5 (≈ 4.25 µM) | > 100 | > 100 | > 100 | 3 (≈ 8.5 µM) | > 100 | > 100 | 100 (≈ 283 µM) | 25 (≈ 70.9 µM) |  | > 100 | > 100 | 1.5 (≈ 4.25 µM) | 3 (≈ 8.5 µM) |  |  | MIC ([7]; Microsporum canis, ATCC11622): 6 µg/mL (≈ 17 µM)
C[C@@H]1[C@H](O)[C@@H](C)/C=C/C=C/CC/C=C/C=C/C=C/C=C/C(O[C@H]2O[C@H](C)[C@@H](O)[C@H](N)[C@@H]2O)CC2O[C@](O)(CC(O)C(O)CCC(O)CC(O)CC(O)CC(=O)O[C@H]1C)CC(O)C2C(=O)O (stereo partly drawn) [nystatin] |  |  |  |  |  | 6 (≈ 6.48 µM) |  |  |  |  |  |  |  |  | 0.8 (≈ 0.864 µM) |  |  |  | 12 (≈ 13 µM) | ~ 200 mg/kg | MIC (Microsporum gypseum): 3 µg/mL (≈ 3.24 µM); MIC (Rhizoctonia solani): 1.5 µg/mL (≈ 1.62 µM); MIC (Fusarium oxysporum): 12 µg/mL (≈ 13 µM); MIC (Rhizopus sp.): 100 µg/mL (≈ 108 µM); MIC [2]: 1.5 µg/mL (≈ 1.62 µM); MIC (Cercospora kikuchi): 12 µg/mL (≈ 13 µM); MIC [4]: 50 µg/mL (≈ 54 µM); MIC [5]: 3 µg/mL (≈ 3.24 µM); MIC (Fusarium roseum; Fusarium roseum): 6 µg/mL (≈ 6.48 µM); MIC [6]: 25 µg/mL (≈ 27 µM); MIC (Phytophthora capsici): 100 µg/mL (≈ 108 µM); MIC (Phytophthora parasitica): 100 µg/mL (≈ 108 µM); MIC [7]: 1.5 µg/mL (≈ 1.62 µM); MIC (Botrytis cinerea): 1.5 µg/mL (≈ 1.62 µM); MIC (Glomerella glycine): 6 µg/mL (≈ 6.48 µM); MIC (Trichophyton ruburum): 3 µg/mL (≈ 3.24 µM)
